From ChEMBL document CHEMBL1135190, “A comparison of the binding of three series of nicotinic ligands” (Bioorg Med Chem Lett, 2002)

What follows are compounds tested against Neuronal acetylcholine receptor (assay: Binding affinity towards nicotinic acetylcholine receptor using [3H]nicotine as radioligand in rat brain homogenates).
Format: tissue-based
For `CN1CCCC1c1cncc(F)c1` (stereo unspecified), the Ki was 1.03 nM. With `CN1CCCC1c1ccc(Br)nc1` (stereo unspecified) the Ki was 0.45 nM. `CCN(C)Cc1cncc(OC)c1` gave a Ki of 115 nM. Compound `CCN(C)CCOc1ccc(Br)nc1` has a Ki of 290 nM. `CCN(C)CCOc1cncc(Br)c1` gave a Ki of 447 nM. For `CCN(C)Cc1cnc2cc3ccncc3cc2c1`, the Ki was 1110 nM. `CCN(C)CCOc1ccc(OC)nc1` was tested, and the Ki was 4070 nM. For `CN1CCCC1c1cncc(Cl)c1` (stereo unspecified), the Ki was 0.63 nM. Compound `CCN(C)Cc1cnccc1Cl` has a Ki of 41 nM. `CCN(C)Cc1ccc(Br)nc1` was tested, and the Ki was 62 nM. Compound `CCN(C)CCOc1cncc(OC)c1` has a Ki of 16 nM. `CN1CCCC1c1cnc2cc3ccncc3cc2c1` (stereo unspecified) gave a Ki of 11.2 nM. In the case of `c1ccc2ncc(C3CCCN3)cc2c1` (stereo unspecified), the Ki is reported as 93 nM. `CCN(C)CCOc1cccnc1` gave a Ki of 22 nM. For `CCN(C)Cc1cnccc1F`, the Ki was 93 nM. For `CCN(C)Cc1ccc(C)nc1`, the Ki was 66 nM.
